Experimental findings from US12227496B2 (BRISTOL-MYERS SQUIBB COMPANY, priority 2019, dated 2025) are described below.

This assay concerns the target T1, human FXR (Homo sapiens, UniProt Q96RI1).
T1 construct: expressed in transfected cells; host or cells: HEK293 cells stably carrying a 5xGal4-response-element firefly luciferase reporter, transiently transfected with pcDNA3.1-Gal4-FXR
T1 sequence (Q96RI1 262-486 limits assumed): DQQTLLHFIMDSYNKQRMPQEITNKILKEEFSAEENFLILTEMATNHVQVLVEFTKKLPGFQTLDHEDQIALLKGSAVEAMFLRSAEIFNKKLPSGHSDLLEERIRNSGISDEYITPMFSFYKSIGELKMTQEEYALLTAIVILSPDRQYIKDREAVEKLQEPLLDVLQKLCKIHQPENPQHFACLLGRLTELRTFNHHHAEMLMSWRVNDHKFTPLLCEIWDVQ
Description: transient human FXR/Gal4-luciferase reporter assay. In kind it is cell-based. Conditions: Gal4-hFXR LBD fusion, luciferase reporter in HEK293 cells; response relative to 8 μM GW-4064. In short, it runs like this: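 HEK293 cells stably carrying a 5×Gal4-response-element firefly luciferase reporter were transiently transfected with Gal4-hFXR. They were then incubated overnight at 37 °C with compound serial dilutions in medium containing 10% charcoal/dextran-stripped FBS. Luminescence was read after Steady-Glo addition.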
(In general: In a reporter assay the amount or activity of a reporter protein is the signal.)

`CCOc1ncc(-c2cccc(N(CC34CCC(c5nc(C(C)(C)C)no5)(CC3)CC4)C(=O)C3CCOCC3)c2)cn1` [Example 87, N-((4-(3-(tert-butyl)-1,2,4-oxadiazol-5-yl)bicyclo[2.2.2]octan-1-yl)methyl)-N-(3-(2-ethoxypyrimidin-5-yl)phenyl)tetrahydro-2H-pyran-4-carboxamide] gave an EC50 of 274 nM. The figure for `COc1cc(-c2cccc(N(CC34CCC(c5nnc(C)s5)(CC3)CC4)C(=O)C3CCOCC3)c2)ccn1` [Example 81, N-(3-(2-methoxypyridin-4-yl)phenyl)-N-((4-(5-methyl-1,3,4-thiadiazol-2-yl)bicyclo[2.2.2]octan-1-yl)methyl)tetrahydro-2H-pyran-4-carboxamide] is 2500 nM.

With `COC(=O)C1CC1c1cccc(N(CC23CCC(c4nc(C)no4)(CC2)CC3)C(=O)C2CCCCC2)c1` (single isomer, unassigned) [Example 101, Methyl 2-(3-(N-((4-(3-methyl-1,2,4-oxadiazol-5-yl)bicyclo[2.2.2]octan-1-yl)methyl)cyclohexanecarboxamido)phenyl)cyclopropane-1-carboxylate], the concentration giving a half-maximal response (EC50) was 245 nM. In the case of `CC(F)(F)c1nc(C23CCC(CN(C(=O)C4CCOCC4)c4ccc(F)c(-c5ccc(P(C)(C)=O)cc5)c4)(CC2)CC3)no1` [Example 122, N-((4-(5-(1,1-difluoroethyl)-1,2,4-oxadiazol-3-yl)bicyclo[2.2.2]octan-1-yl)methyl)-N-(4′-(dimethylphosphoryl)-6-fluoro-[1,1′-biphenyl]-3-yl)tetrahydro-2H-pyran-4-carboxamide] it was 1320 nM; in that of `CC(C)(C)c1nc(C23CCC(CN(C(=O)C4CCC(F)(F)CC4)c4cccc(-c5cc(C6CC6)no5)c4)(CC2)CC3)no1` [Example 148, N-((4-(5-(tert-butyl)-1,2,4-oxadiazol-3-yl)bicyclo[2.2.2]octan-1-yl)methyl)-N-(3-(3-cyclopropylisoxazol-5-yl)phenyl)-4,4-difluorocyclohexane-1-carboxamide], 107 nM. The figure for `CC(C)(C)c1nnc(C23CCC(CN(C(=O)C4CCC(F)(F)CC4)c4cccc(-c5cc(C6CC6)on5)c4)(CC2)CC3)o1` [Example 124, N-((4-(5-(tert-Butyl)-1,3,4-oxadiazol-2-yl)bicyclo[2.2.2]octan-1-yl)methyl)-N-(3-(5-cyclopropylisoxazol-3-yl)phenyl)-4,4-difluorocyclohexane-1-carboxamide] is 467 nM; for `O=C(C1CCOCC1)N(CC12CCC(c3nc(C4CC4)no3)(CC1)CC2)c1cccc(-c2cc(C3CC3)on2)c1` [Example 40, N-((4-(3-cyclopropyl-1,2,4-oxadiazol-5-yl)bicyclo[2.2.2]octan-1-yl)methyl)-N-(3-(5-cyclopropylisoxazol-3-yl)phenyl)tetrahydro-2h-pyran-4-carboxamide] it is 78 nM; for `COCc1nc(-c2cccc(N(CC34CCC(c5nc(C6CC6)no5)(CC3)CC4)C(=O)C3CCCCC3)c2)cs1` [Example 49, N-((4-(3-cyclopropyl-1,2,4-oxadiazol-5-yl)bicyclo[2.2.2]octan-1-yl)methyl)-N-(3-(2-(methoxymethyl)thiazol-4-yl)phenyl)cyclohexanecarboxamide] it is 105 nM. The figure for `COc1cc(-c2cccc(N(CC34CCC(c5nc(C6CC6)no5)(CC3)CC4)C(=O)C3CCOCC3)c2)ccn1` [Example 83, N-((4-(3-cyclopropyl-1,2,4-oxadiazol-5-yl)bicyclo[2.2.2]octan-1-yl)methyl)-N-(3-(2-methoxypyridin-4-yl)phenyl)tetrahydro-2H-pyran-4-carboxamide] is 303 nM. For the compound `Cc1nc2ccc(-c3cc(N(CC45CCC(c6noc(C(C)(F)F)n6)(CC4)CC5)C(=O)C4CCC(F)(F)CC4)ccc3F)cc2s1` [Example 108, N-((4-(5-(1,1-difluoroethyl)-1,2,4-oxadiazol-3-yl)bicyclo[2.2.2]octan-1-yl)methyl)-4,4-difluoro-N-(4-fluoro-3-(2-methylbenzo[d]thiazol-6-yl)phenyl)cyclohexane-1-carboxamide], the EC50 stood at 250 nM. As to `COc1cccc(-c2cccc(N(CC34CCC(c5nc(C)no5)(CC3)CC4)C(=O)C3CCCCC3)c2)c1` [Example 72, N-(3′-methoxy-[1,1′-biphenyl]-3-yl)-N-((4-(3-methyl-1,2,4-oxadiazol-5-yl)bicyclo[2.2.2]octan-1-yl)methyl)cyclohexanecarboxamide], the EC50 amounted to 307 nM. `O=C(C1CCOCC1)N(CC12CCC(c3nc(CC4CC4)no3)(CC1)CC2)c1cccc(-c2nc(C3CC3)no2)c1` [Example 45, N-(3-(3-cyclopropyl-1,2,4-oxadiazol-5-yl)phenyl)-N-((4-(3-(cyclopropylmethyl)-1,2,4-oxadiazol-5-yl)bicyclo[2.2.2]octan-1-yl)methyl)tetrahydro-2H-pyran-4-carboxamide] came in with an EC50 of 278 nM.

`CC(C)(C)c1nnc(C23CCC(CN(C(=O)C4CCC(F)(F)CC4)c4cccc(-c5nc(C6CC6)no5)c4)(CC2)CC3)o1` [Example 123, N-((4-(5-(tert-Butyl)-1,3,4-oxadiazol-2-yl)bicyclo[2.2.2]octan-1-yl)methyl)-N-(3-(3-cyclopropyl-1,2,4-oxadiazol-5-yl)phenyl)-4,4-difluorocyclohexane-1-carboxamide]: it took 280 nM to reach a half-maximal effect (EC50).

For `O=C(C1CCCOC1)N(CC12CCC(c3nc(C4CC4)cs3)(CC1)CC2)c1cccc(-c2nc(C3CC3)no2)c1` (racemic) [Example 66, N-(3-(3-cyclopropyl-1,2,4-oxadiazol-5-yl)phenyl)-N-((4-(4-cyclopropylthiazol-2-yl)bicyclo[2.2.2]octan-1-yl)methyl)tetrahydro-2H-pyran-3-carboxamide], the midpoint of the response, the EC50, lay at 1250 nM. In the case of `COc1cc(-c2cccc(N(CC34CC(c5nc(C6CC6)no5)(C3)C4)C(=O)C3CCCCC3)c2)ccn1` [Example 96, N-((3-(3-cyclopropyl-1,2,4-oxadiazol-5-yl)bicyclo[1.1.1]pentan-1-yl)methyl)-N-(3-(2-methoxypyridin-4-yl)phenyl)cyclohexanecarboxamide] it was 3430 nM. The figure for `CC(C)(C)c1noc(C23CCC(CN(C(=O)C4CCC(F)(F)CC4)c4cccc(-c5cc(C6CC6)on5)c4)(CC2)CC3)n1` [Example 159, N-((4-(3-(tert-butyl)-1,2,4-oxadiazol-5-yl)bicyclo[2.2.2]octan-1-yl)methyl)-N-(3-(5-cyclopropylisoxazol-3-yl)phenyl)-4,4-difluorocyclohexane-1-carboxamide] is 78 nM; for `COCc1nc(-c2cccc(N(CC34CCC(c5nc(C6CC6)no5)(CC3)CC4)C(=O)C3CCN(C(=O)OC(C)(C)C)CC3)c2)cs1` [Example 48, tert-butyl 4-(((4-(3-cyclopropyl-1,2,4-oxadiazol-5-yl)bicyclo[2.2.2]octan-1-yl)methyl)(3-(2-(methoxymethyl)thiazol-4-yl)phenyl)carbamoyl)piperidine-1-carboxylate] it is 856 nM; for `O=C(C1CCC(F)(F)CC1)N(CC12CCC(c3nc(C4CC4)no3)(CC1)CC2)c1cccc(-c2nc(CC3CC3)no2)c1` [Example 43, N-((4-(3-cyclopropyl-1,2,4-oxadiazol-5-yl)bicyclo[2.2.2]octan-1-yl)methyl)-N-(3-(3-(cyclopropylmethyl)-1,2,4-oxadiazol-5-yl)phenyl)-4,4-difluorocyclohexane-1-carboxamide] it is 379 nM. In the case of `COc1ccc(-c2cccc(N(CC34CCC(c5nc(C)no5)(CC3)CC4)C(=O)C3CCCCC3)c2)cc1` [Example 76, N-(4′-methoxy-[1,1′-biphenyl]-3-yl)-N-((4-(3-methyl-1,2,4-oxadiazol-5-yl)bicyclo[2.2.2]octan-1-yl)methyl)cyclohexane carboxamide] it was 387 nM.

In turn, `COc1cc(-c2cccc(N(CC34CCC(C#N)(CC3)CC4)C(=O)C3CCCCC3)c2)ccn1` [Example 99, N-((4-cyanobicyclo[2.2.2]octan-1-yl)methyl)-N-(3-(2-methoxypyridin-4-yl)phenyl)cyclohexanecarboxamide] returned an EC50 of 1530 nM. For the compound `Cn1cc(-c2cccc(N(CC34CCC(c5nc(C6CC6)no5)(CC3)CC4)C(=O)C3CCCOC3)c2)nc1C1CC1` (racemic) [Example 68, N-((4-(3-cyclopropyl-1,2,4-oxadiazol-5-yl)bicyclo[2.2.2]octan-1-yl)methyl)-N-(3-(2-cyclopropyl-1-methyl-1H-imidazol-4-yl)phenyl)tetrahydro-2H-pyran-3-carboxamide], the concentration giving a half-maximal response (EC50) stood at 4100 nM.

The compound `CN1CCC(C(=O)N(CC23CCC(c4nc(C5CC5)no4)(CC2)CC3)c2cccc(-c3cnc(C4CC4)o3)c2)CC1` [Example 24, N-((4-(3-cyclopropyl-1,2,4-oxadiazol-5-yl)bicyclo[2.2.2]octan-1-yl)methyl)-N-(3-(2-cyclopropyloxazol-5-yl)phenyl)-1-methylpiperidine-4-carboxamide] gave a concentration for a half-maximal effect (EC50) of 4800 nM.

For the compound `Cn1nc(C2CC2)cc1C12CCC(CN(C(=O)C3CCS(=O)(=O)CC3)c3cccc(-c4cc(C5CC5)no4)c3)(CC1)CC2` [Example 138, N-((4-(3-cyclopropyl-1-methyl-1H-pyrazol-5-yl)bicyclo[2.2.2]octan-1-yl)methyl)-N-(3-(3-cyclopropylisoxazol-5-yl)phenyl)tetrahydro-2H-thiopyran-4-carboxamide 1,1-dioxide], the response was half-maximal at 1580 nM (EC50).

`CCOc1nnc(-c2cccc(N(CC34CCC(c5nc(C6CC6)no5)(CC3)CC4)C(=O)C3CCC(F)(F)CC3)c2)o1` [Example 39, N-((4-(3-cyclopropyl-1,2,4-oxadiazol-5-yl)bicyclo[2.2.2]octan-1-yl)methyl)-N-(3-(5-ethoxy-1,3,4-oxadiazol-2-yl)phenyl)-4,4-difluorocyclohexane-1-carboxamide] came in with an EC50 of 130 nM.

Usually EC50 stands for the concentration giving half of the maximal effect. Low readings indicate an effect from little substance, high ones a need for much substance.
